From patent US5356911A, “Substituted biphenylpyridones” (Bayer Aktiengesellschaft, priority 1991, dated 1994)
Counter-ions that a name gives are not always drawn.

What follows are molecules tested against T1, Angiotensin II receptor (Bos taurus, UniProt P25104) (assay: Inhibition of specific binding of 3H-angiotensin II to the angiotensin II receptor on membrane fractions of the adrenal cortex). Conditions: 3H-angiotensin II (3-5 nM), bovine adrenal cortex membranes, 60 min, room temperature.
T1 construct: Adrenal cortices of cattle (ACC), which have been freshly removed and carefully freed of gland medulla; from tissue; host or cells: bovine adrenal cortex, partially purified membrane fractions
T1 sequence (P25104 1-359): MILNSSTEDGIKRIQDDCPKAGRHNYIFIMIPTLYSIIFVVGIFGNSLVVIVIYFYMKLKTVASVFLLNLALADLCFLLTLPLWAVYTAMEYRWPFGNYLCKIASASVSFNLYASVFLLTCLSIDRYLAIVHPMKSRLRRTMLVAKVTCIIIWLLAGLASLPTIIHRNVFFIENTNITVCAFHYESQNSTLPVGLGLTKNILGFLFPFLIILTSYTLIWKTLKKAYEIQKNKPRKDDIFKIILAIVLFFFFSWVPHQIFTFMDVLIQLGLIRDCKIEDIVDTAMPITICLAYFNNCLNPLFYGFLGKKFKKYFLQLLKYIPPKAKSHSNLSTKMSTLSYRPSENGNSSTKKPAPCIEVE
Design: species or system cattle (bovine)
Excerpt: Interaction of the Compounds According to the Invention With the Angiotensin II Receptor on Membrane Fractions of the Adrenal Cortex (Cattle)
Adrenal cortices of cattle (ACC), which have been freshly removed and carefully freed of gland medulla, are comminuted in sucrose solution (0.32M) with the aid of an Ultra-Turrax (Janke & Kunkel, Staufen i.B.) to give a coarse membrane homogenate and partially purified in two centrifugation steps to give membrane fractions. The investigations of receptor binding were carried out on partially purified membrane fractions of bovine ACC using radioactive angiotensin II in an assay volume of 0.25 ml, which in detail contains the partially purified membranes (50-80 μg), ^3 H-angiotensin II (3-5 nM), test buffer solution (50 mM tris, pH 7.2, 5 mM MgCl2 and the substances to be investigated. After an incubation time of 60 min at room temperature, the unbound radioactivity of the samples is separated by means of moistened glass fibre filters (Whatman GF/C) and the bound radioactivity is measured spectrophotometrically in a scintillation cocktail after washing the protein with ice-cold buffer solution (50 mM tris/HCl, pH 7.4, 5% PEG 6000). The analysis of the raw data was carried out using computer programs to give Ki and IC50 values (Ki: IC50 values corrected for the radioactivity used; IC50 values: concentration at which the substance to be investigated causes a 50% inhibition of the specific binding of the radioligand).

Which Ki does the source give for `CCCCc1cc(COC)cc(=O)n1Cc1ccc(-c2ccccc2-c2nnn[nH]2)cc1` [LXXXII] here?
Its Ki is 79 nM.

For `CCCCc1cc(COC)cc(=O)n1Cc1ccc(-c2ccccc2-c2nnn[nH]2)cc1` [Example LV], which Ki is on record?
Its Ki is 15 nM.

How did the Ki turn out when `CCc1cc(CC)n(Cc2ccc(-c3ccccc3-c3nnn[nH]3)cc2)c(=O)c1C#N` [XXXIV] was run?
Its Ki is over 10000 nM.

`CCCCc1cc(C(=O)OCC)c(C#N)c(=O)n1Cc1ccc(-c2ccccc2-c2nnn[nH]2)cc1` [XLVII] was tested. Which Ki did it give?
The Ki was 220 nM.

For `CCCc1cc(C(N)=O)cc(=O)n1Cc1ccc(-c2ccccc2-c2nnn[nH]2)cc1` [Example LVI], which Ki is on record?
Its Ki is 9 nM.

With `N#Cc1c(C(=O)O)cc(C2CC2)n(Cc2ccc(-c3ccccc3-c3nnn[nH]3)cc2)c1=O` [XCIV] as the molecule, how does the Ki read?
Its Ki is 42 nM.

What follows are molecules tested on Angiotensin II-Infused Rat (assay: Blood pressure measurements on the angiotensin II-infused rat). Conditions: 0.3 mg/kg p.o.; angiotensin II infusion 0.3 μg/kg/min; anaesthetised rats.
Type: in vivo, Male Wistar rats
Description: Blood Pressure Measurements on the Angiotensin II-Infused Rat
Male Wistar rats (Moellegaard, Copenhagen, Denmark) having a body weight of 300-350 g are anaesthetised with thiopental (100 mg/kg i.p.). After tracheotomy, one catheter is inserted in the femoral artery for blood pressure measurement and one catheter is inserted in the femoral veins for angiotensin II infusion and one catheter for substance administration. After administration of the ganglionic blocker pentolinium (5 mg/kg i.v.), angiotensin II infusion (0.3 μg/kg/min) is started. As soon as the blood pressure values have reached a stable plateau, the test substances are administered either intravenously or orally as a suspension or solution in 0.5% tylose.

For “6-Butyl-4-methoxycarbonyl-2-oxo-1-{[2'-(N-triphenylmethyl-tetrazol-5-yl)biphenyl-4-yl]methyl}-1,2-dihydropyridine [Example I]”, which Blood pressure decrease is on record?
The Blood pressure decrease was over 50 mm Hg.

These molecules were tested on contraction of the isolated rabbit aorta induced by angiotensin II (assay: Inhibition of the angiotensin II-induced vascular contraction of isolated rabbit aorta rings in vitro). Conditions: Oryctolagus cuniculus; isolated aorta rings of rabbits in vitro; based on 3rd = sub-maximal agonist concentration; read-out: IC50 for contractions induced by AII.
Type: cell-based
Description: Investigation of the Inhibition of the Contraction Induced by Agonists
Rabbits of both sexes are stunned by a blow to the neck and bled out, or in some cases anaesthetised with Nembutal (about 60-80 mg/kg i.v.) and sacrificed by opening the thorax. The thorax aorta is removed, freed of adhering connective tissue, divided into 1.5 mm wide ring segments and individually transferred under an initial loading of about 3.5 g to 10 ml organ baths containing 95% O2, 5% CO2 -aerated Krebs-Henseleit nutrient solution adjusted to 37° C. and of the following composition: 119 mmol/l of NaCl; 2.5 mmol/l of CaCl2 ×2H2 O; 1.2 mmol/l of KH2 PO4; 10 mmol/l of glucose; 4.8 mmol/l of KCl; 1.4 mmol/l of MgSO4 ×7 H2 O and 25 mmol/l of NaHCO3.
The contractions are detected isometrically by Statham UC2 cells by means of bridge amplifiers (ifd Mulheim or DSM Aalen) and digitalised and analysed by means of an A/D converter (System 570, Keithley Munich). The agonist dose-response curves (DRC) are carried out hourly. With each DRC, 3 or 4 individual concentrations are applied to the baths at 4 min intervals. After the end of the DRC and subsequent washing-out cycles (16 times, in each case about 5 sec/min with the abovementioned nutrient solution), a 28-minute resting or incubation phase follows, in the course of which the contractions as a rule reach the starting value again.
The height of the 3rd DRC, in the normal case, is used as a reference quantity for the assessment of the test substance to be investigated in other passages, which is applied to the baths in the following DRCs in increasing dosage in each case at the start of the incubation time. Each aorta ring is in this way stimulated for the whole day, always with the same agonist.
For the calculation of the IC50 (concentration at which the substance to be investigated causes a 50% inhibition), the effect is in each case based on the 3rd=sub-maximal agonist concentration.
rings of rabbits in vitro
IC50 (g/ml) for contractions induced by: AII

Which IC50 does the source give for `CCCCc1cc(C(N)=O)cc(=O)n1Cc1ccc(-c2ccccc2-c2nnn[nH]2)cc1` [XLV] here?
Its IC50 is 3.7 nM.

`CCCCc1cc(C(=O)OCc2ccccc2)cc(=O)n1Cc1ccc(-c2ccccc2-c2nnn[nH]2)cc1` [XLIII] was tested. Which IC50 did it give?
Its IC50 is 39 nM.

`CCCCc1cccc(=O)n1Cc1ccc(-c2ccccc2-c2nnn[nH]2)cc1` [XXXIII] was tested. Which IC50 did it give?
Its IC50 is 7.3 nM.

For `CCCc1cc(C(=O)OC)cc(=O)n1Cc1ccc(-c2ccccc2-c2nnn[nH]2)cc1` [LXXVIII], which IC50 is on record?
Its IC50 is 34 nM.

How did the IC50 turn out when `CCCCc1cc(CO)cc(=O)n1Cc1ccc(-c2ccccc2-c2nnn[nH]2)cc1` [LIV] was run?
The IC50 was 13 nM.

`CCCCc1cc(C(=O)O)cc(=O)n1Cc1ccc(-c2ccccc2-c2nnn[nH]2)cc1` [Example XCII, 6-Butyl-4-carboxy-2-oxo-1[(2'-tetrazol-5-yl-biphenyl-4-yl)methyl-1,2-dihydropyridinedisodium salt] was tested. Which IC50 did it give?
The IC50 was 120 nM.
